# Paper PMC8283942 (Journal of the American Chemical Society, 2021)
# Target: SsTyrH (heme-dependent L-tyrosine hydroxylase)
# Experiment: UV–vis substrate titration
# Assay type: binding, Streptomyces sclerotialus
smiles,measurement,value
"N[C@@H](Cc1ccc(O)cc1)C(=O)O [Tyr, L-tyrosine]",Kd,109 ± 5 µM
